pIC50: −log10 of the molar value. Where two headings read alike, the source gives them in different places.
Columns and labels:
[1] = biological target: T1, PPARγ (Homo sapiens, UniProt P37231); assay type: cell-based; settings: for effect on induction by rosiglitazone (coincubation): 0–5 µM NO2-LA isomer with fixed 0.1 µM rosiglitazone; for mean induction as a percentage of induction by 0.1 µM rosiglitazone (100%): ligands at 5 µM, mean of 6–18 determinations ± SEM; for agonist (full or partial): relative to rosiglitazone, defined as full agonist; for PPARγ activation (in words): concentrations as high as 100 µM
T1 sequence (P37231 1-477 isoform P37231-2): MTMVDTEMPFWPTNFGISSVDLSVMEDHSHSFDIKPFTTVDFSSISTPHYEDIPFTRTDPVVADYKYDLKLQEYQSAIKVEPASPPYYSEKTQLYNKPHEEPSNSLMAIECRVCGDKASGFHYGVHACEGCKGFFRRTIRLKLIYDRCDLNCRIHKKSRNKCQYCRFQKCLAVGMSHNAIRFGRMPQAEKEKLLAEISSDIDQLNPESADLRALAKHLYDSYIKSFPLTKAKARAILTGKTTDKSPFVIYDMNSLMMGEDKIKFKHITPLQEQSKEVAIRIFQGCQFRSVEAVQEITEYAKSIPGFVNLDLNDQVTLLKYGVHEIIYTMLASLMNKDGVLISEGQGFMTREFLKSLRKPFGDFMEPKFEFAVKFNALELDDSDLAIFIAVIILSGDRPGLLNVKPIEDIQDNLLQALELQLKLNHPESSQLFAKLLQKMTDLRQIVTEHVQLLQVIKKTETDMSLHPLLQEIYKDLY

[2] = biological target: T2, GST-hPPARα (recombinant human PPARα) (Homo sapiens, UniProt Q07869); assay: Radioligand competition scintillation proximity binding assay, PPARα
T2 sequence (Q07869 1-468): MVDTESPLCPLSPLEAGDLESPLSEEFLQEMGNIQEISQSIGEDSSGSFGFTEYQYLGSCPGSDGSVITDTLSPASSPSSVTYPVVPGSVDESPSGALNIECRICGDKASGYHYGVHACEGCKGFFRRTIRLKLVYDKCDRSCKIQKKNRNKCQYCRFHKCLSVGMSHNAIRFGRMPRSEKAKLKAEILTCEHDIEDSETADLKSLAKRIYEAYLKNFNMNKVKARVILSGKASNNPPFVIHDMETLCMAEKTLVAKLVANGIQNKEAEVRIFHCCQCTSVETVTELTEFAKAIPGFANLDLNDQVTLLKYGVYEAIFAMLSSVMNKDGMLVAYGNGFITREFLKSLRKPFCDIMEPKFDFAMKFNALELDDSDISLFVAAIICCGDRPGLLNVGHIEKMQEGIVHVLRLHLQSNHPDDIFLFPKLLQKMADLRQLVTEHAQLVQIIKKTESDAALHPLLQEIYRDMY

[3] = biological target: T3, GST-hPPARγ (recombinant human PPARγ) (Homo sapiens, UniProt P37231); assay: Radioligand competition scintillation proximity binding assay, PPARγ
T3 sequence (P37231 1-505): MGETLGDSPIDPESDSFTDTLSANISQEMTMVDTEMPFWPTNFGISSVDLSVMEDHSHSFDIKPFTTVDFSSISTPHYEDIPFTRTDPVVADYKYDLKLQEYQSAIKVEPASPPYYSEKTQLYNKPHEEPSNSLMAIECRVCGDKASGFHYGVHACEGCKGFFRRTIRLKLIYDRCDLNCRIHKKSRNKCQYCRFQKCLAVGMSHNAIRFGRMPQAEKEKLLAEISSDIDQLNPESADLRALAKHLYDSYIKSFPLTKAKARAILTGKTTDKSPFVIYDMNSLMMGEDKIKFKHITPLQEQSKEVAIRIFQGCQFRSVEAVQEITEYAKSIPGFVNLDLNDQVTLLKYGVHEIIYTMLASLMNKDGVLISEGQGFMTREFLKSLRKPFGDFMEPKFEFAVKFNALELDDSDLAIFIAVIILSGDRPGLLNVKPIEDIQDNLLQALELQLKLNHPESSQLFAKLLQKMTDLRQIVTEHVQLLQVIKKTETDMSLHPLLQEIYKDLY

Compound	effect on induction by rosiglitazone (coincubation) [1]	mean induction as a percentage of induction by 0.1 µM rosiglitazone (100%) [1]	agonist (full or partial) [1]	agonist (full or partial) ([1]; listed as 12-NO2)	agonist (full or partial) ([1]; listed as 12-NO2-LA)	apparent affinity for PPARα (in words) [2]	PPARγ activation (in words) [1]	PPARγ activation (in words) ([1]; listed as Linoleic acid)	pIC50 [3]	binding affinity for PPARγ (in words) [3]	pIC50 [2]	EC50 fold higher than for 12-NO2-LA [1]	maximum level of PPARγ activation as % of that of the 12-NO2 isomer [1]	agonist (full or partial) ([1]; listed as 13-NO2-LA)
CCCCC/C=C(\C/C=C\CCCCCCCC(=O)O)[N+](=O)[O-] [12-NO2-linoleic acid, (9Z,12E)-12-nitrooctadeca-9,12-dienoic acid]	less pronounced	76 ± 9%	partial	nearly full agonist activity	partial agonists	very low	–	–	–	–	–	–	–	–
CCCCC/C=C\C/C=C\CCCCCCCC(=O)O [linoleic acid, (9Z,12Z)-octadeca-9,12-dienoic acid, reference compound]	–	–	–	–	–	–	negligible PPARγ activation	does not support activation	4.97	very low affinity	< 4.82	–	–	–
CCCCC/C(=C\C/C=C\CCCCCCCC(=O)O)[N+](=O)[O-] [13-NO2-linoleic acid, (9Z,12E)-13-nitrooctadeca-9,12-dienoic acid]	significantly reduced the level of induction by rosiglitazone	41 ± 5%	partial	–	–	–	–	–	6.36	–	< 4.82	more than 10 fold	~ 50%	partial agonists

— article PMC9972884 (Biochemistry, 2009)
